Data reported in publication PMC11592477, “Bioengineering the Human Intestinal Mucosa and the Importance of Stromal Support for Pharmacological Evaluation In Vitro” (Cells, 2024).

How the values were obtained:
[1] = tested on: epithelial-only (EO) Caco-2 monolayer constructs; assay: Ussing chamber drug permeability, epithelial-only (EO) constructs; format: in vitro ADME, human
[2] = tested on: full thickness (FT) intestinal constructs (Caco-2 on CCD-18co or HDFn stromal compartment); assay: Ussing chamber drug permeability, full-thickness (FT) intestinal constructs; format: in vitro ADME, human
Caco-2 monolayers = conditions: hydrophilic drugs; in words; ref [14]; cited from earlier work
[3] = hydrophilic drugs; in words; ref [14]; cited from earlier work
[4] = tested on: epithelial-only (EO) Caco-2 monolayer constructs; assay: Transepithelial electrical resistance (TEER) of KGF-supplemented EO constructs; format: cell-based, human; conditions: with increasing KGF concentration (0.5–25 ng.mL−1)
Aminopeptidase = Aminopeptidase activity assay of KGF-supplemented EO constructs; format: cell-based, human; conditions: with increasing KGF concentration (0.5–25 ng.mL−1)
Protocol: (§1) For conditioned medium studies, Caco-2 monolayers were established as above, but after 48 h, the medium was replenished with a 1:1 mix of fresh culture medium and conditioned medium obtained from 80% confluent fibroblast cultures (HDFn or CCD-18co). The conditioned medium was centrifuged to remove cellular debris and sterile filtered before addition to EO cultures. Similarly, KGF-supplemented cultures were seeded in standard conditions and supplemented with a range of concentrations (0.5–25 ng·mL^−1) of KGF following the establishment of cultures for 48 h. Both conditioned and KGF-supplemented media were replenished at each media change: every two days.
Aminopeptidase activity was quantified through the catalyzation of the cleavage of L-slsninr-4-nitroanilide hydrochloride into the breakdown product 4-nitranline. This was achieved through the addition of 0.5 mL of prewarmed 1.5 mM L-analine-4-nitiroanilide hydrochloride solution (Sigma-Aldrich, St. Louis, […], USA) to the apical compartment of bioengineered tissue constructs (both EO and FT). The constructs were incubated for 1 h at 37 °C at 100 rpm using an orbital shaker. Following incubation, 100 μL of the cleavage product-containing solution was sampled from each construct and the absorbance was quantified at 405 nm using a BioTek™ ELx800 (Winooski, VT, USA) plate reader. Enzyme activity was expressed as a function of tissue area.

villin = assay: Immunofluorescence of villin in KGF-supplemented EO constructs; format: cell-based, human; conditions: with KGF concentration up to 5–25 ng.mL−1
Protocol: as §1
Wax sections were prepared for staining by de-paraffinization in Histo-Clear followed by rehydration from 100% ethanol to PBS. Antigen retrieval was performed in citrate buffer (pH 6, Sigma-Aldrich) at 95 °C for 20 min. Alternatively, EO constructs were prepared through fixation in a 1:1 ice-cold solution of methanol (Sigma-Aldrich) and acetone (Sigma-Aldrich) for 10 min at −20 °C. From this point onwards whole EO constructs and mounted tissue sections were stained in the same manner.
The samples were blocked for 1 h at room temperature in a solution consisting of 10% normal goat serum ([…], Sigma-Aldrich) and 0.1% […] (Sigma-Aldrich) in PBS. […]

[5] = tested on: epithelial-only (EO) Caco-2 monolayer constructs; assay: qPCR gene expression in KGF-supplemented EO constructs; format: cell-based, human; conditions: with increasing KGF concentration
Protocol: as §1
EO tissue constructs were lysed in RLT buffer (Qiagen, Manchester, UK) and homogenized through repeated aspiration with a 20-gauge needle. […] The mRNA was suspended in molecular-grade water and stored at −80 °C prior to analysis. mRNA abundance was quantified using a Nanodrop Spectrophotometer […] and 200 ng was reverse-transcribed using the GoScript™ Reverse Transcriptase kit (Promega, Hampshire, UK), as per the manufacturer’s instructions. […] Data were analyzed through normalization to the housekeeping reference genes (GAPDH) using the ΔΔCt method and the fold change was averaged after this normalization.

MDR1 = MDR1 (Homo sapiens, UniProt P08183); assay: MDR1-mediated Rhodamine 123 transport in EO constructs (Ussing chamber); conditions: EO constructs supplemented with KGF 0.5–25 ng.mL−1, absence of verapamil
[6] = FT constructs on intestinal and dermal fibroblast foundation compared with Caco-2 monolayer EO, 100 μM

Chain of MDR1 (P08183 whole entry): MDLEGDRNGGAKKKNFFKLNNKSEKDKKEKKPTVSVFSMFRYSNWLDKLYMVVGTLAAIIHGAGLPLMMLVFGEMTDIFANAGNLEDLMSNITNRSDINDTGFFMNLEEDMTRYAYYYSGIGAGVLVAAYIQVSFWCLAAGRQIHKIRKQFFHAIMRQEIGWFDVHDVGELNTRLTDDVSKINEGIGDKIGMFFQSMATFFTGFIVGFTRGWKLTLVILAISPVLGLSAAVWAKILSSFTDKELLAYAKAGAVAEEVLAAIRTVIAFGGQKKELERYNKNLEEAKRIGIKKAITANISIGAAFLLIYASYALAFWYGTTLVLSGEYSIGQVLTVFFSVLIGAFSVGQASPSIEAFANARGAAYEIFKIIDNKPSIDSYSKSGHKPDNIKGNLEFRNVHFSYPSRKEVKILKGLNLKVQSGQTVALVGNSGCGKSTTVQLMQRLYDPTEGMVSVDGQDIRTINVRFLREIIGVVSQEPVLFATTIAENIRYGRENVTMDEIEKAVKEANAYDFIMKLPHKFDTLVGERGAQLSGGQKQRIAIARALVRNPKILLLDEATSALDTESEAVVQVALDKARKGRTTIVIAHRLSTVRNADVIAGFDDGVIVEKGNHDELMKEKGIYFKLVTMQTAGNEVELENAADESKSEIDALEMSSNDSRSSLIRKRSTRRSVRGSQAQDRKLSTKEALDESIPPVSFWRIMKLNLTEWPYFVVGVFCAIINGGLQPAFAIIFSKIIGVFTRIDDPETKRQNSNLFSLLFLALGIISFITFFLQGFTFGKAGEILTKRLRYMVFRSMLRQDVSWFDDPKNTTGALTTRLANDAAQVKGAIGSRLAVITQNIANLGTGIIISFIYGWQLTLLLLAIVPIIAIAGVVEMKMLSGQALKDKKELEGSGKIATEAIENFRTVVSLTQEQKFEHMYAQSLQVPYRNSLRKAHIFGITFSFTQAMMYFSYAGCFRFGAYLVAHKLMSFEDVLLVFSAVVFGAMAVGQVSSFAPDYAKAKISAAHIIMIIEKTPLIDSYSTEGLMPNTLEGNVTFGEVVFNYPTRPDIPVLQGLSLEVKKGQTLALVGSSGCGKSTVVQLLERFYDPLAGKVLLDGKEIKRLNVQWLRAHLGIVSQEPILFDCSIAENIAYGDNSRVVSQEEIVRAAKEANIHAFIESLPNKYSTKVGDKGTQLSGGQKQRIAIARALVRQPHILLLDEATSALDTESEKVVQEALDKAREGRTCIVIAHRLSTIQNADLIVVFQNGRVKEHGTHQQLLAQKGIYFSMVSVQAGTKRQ

## COC(=O)c1ccccc1-c1c2ccc(=N)cc-2oc2cc(N)ccc12 [Rhodamine 123]
[1]; EO constructs in dermal fibroblast conditioned medium vs control, 5 μM, 120 min
  apparent permeability (Papp), basal-apical: enhanced
[1]; EO constructs in medium conditioned by intestinal and dermal fibroblasts vs control medium, 5 μM, 120 min
  apparent permeability (Papp), apical-basal: increased
[2]; FT constructs on intestinal fibroblast foundation compared with dermal fibroblast counterpart, absence of verapamil, 5 μM
  apparent permeability (Papp), basal-apical: significantly increased
[2]; FT constructs on intestinal vs dermal fibroblast foundation, regardless of verapamil, 5 μM
  apparent permeability (Papp), apical-basal: no significant difference

## CC1(C)S[C@@H]2[C@H](NC(=O)[C@H](N)c3ccc(O)cc3)C(=O)N2[C@H]1C(=O)O [amoxicillin]
Caco-2 monolayers
  Caco-2 permeability in vitro: low
[3]
  absorption in vivo: high

## CC1=C(C(=O)O)N2C(=O)[C@@H](NC(=O)[C@H](N)c3ccc(O)cc3)[C@H]2SC1 [cefadroxil]
Caco-2 monolayers
  Caco-2 permeability in vitro: low
[3]
  absorption in vivo: high

## N[C@@H](C(=O)N[C@@H]1C(=O)N2C(C(=O)O)=C(Cl)CC[C@H]12)c1ccccc1 [loracarbef]
Caco-2 monolayers
  Caco-2 permeability in vitro: low
[3]
  absorption in vivo: high

## CN(Cc1cnc2nc(N)nc(N)c2n1)c1ccc(C(=O)N[C@@H](CCC(=O)O)C(=O)O)cc1 [methotrexate]
[1]; EO constructs in intestinal fibroblast conditioned medium, 10 μM
  Papp, basal-apical transport (BCRP-mediated): modestly enhanced
[2]; FT co-culture constructs only, to a greater degree with dermal fibroblasts, 10 μM
  Papp, apical-basal transport (RFC1 and PCFT): increased
[2]; FT constructs with dermal fibroblast-based stromal foundation, 10 μM
  Papp, basal-apical transport (BCRP-mediated): increased to the greatest extent

## CC(C)C[C@H](CN)CC(=O)O [pregabalin]
Caco-2 monolayers
  Caco-2 permeability in vitro: low
[3]
  absorption in vivo: high

## Cc1cn([C@H]2C[C@H](N=[N+]=[N-])[C@@H](CO)O2)c(=O)[nH]c1=O [zidovudine]
Caco-2 monolayers
  Caco-2 permeability in vitro: low
[3]
  absorption in vivo: high

## Lucifer yellow
[1]; EO constructs in intestinal fibroblast-conditioned medium vs control, not significant, 100 μM
  permeability (Papp), basal-apical: slight increase
[2]; [6]
  permeability (Papp), apical-basal: significantly increased
  permeability (Papp), basal-apical: significantly increased

B1: keratinocyte growth factor (protein, UniProt P21781 32-194, looked up)
Fibroblast growth factor 7: CNDMTPEQMATNVNCSSPERHTRSYDYMEGGDIRVRRLFCRTQWYLRIDKRGKVKGTQEMKNNYNIMEIRTVAVGIVAIKGVESEFYLAMNKEGKLYAKKECNEDCNFKELILENHYNTYASAKWTHNGGEMFVALNQKGIPVRGKKTKKEQKTAHFLPMAIT
notes: keratinocyte growth factor, soluble mediator secreted by fibroblasts, added exogenously to EO constructs
[4]
  TEER: decreased
Aminopeptidase
  aminopeptidase activity: increased
villin
  immunofluorescent detection of villin: increases
[5]
  occludin gene expression (qPCR): decreased
  villin gene expression (qPCR): increased
MDR1
  effect on basal-apical transport of Rhodamine 123: increased
